Tests used:
Assay type in all cases: in vivo
[1] = system: Italian ryegrass (Lolium mutiflorum); test: Test C preemergence, visual plant response rating; details: Test C, 0 is no effect, 100 is complete control
Method in brief: (§1)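 Compounds in a non-phytotoxic solvent with surfactant were applied as a directed soil spray preemergence or to 2–10 cm, one- to two-leaf plants postemergence, in loam–sand soil. After about 10 d in a greenhouse, injury was visually rated against untreated controls on a 0–100 scale (100 = complete control).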

[2] = system: foxtail, giant (giant foxtail, Setaria faberi); test: Test C preemergence, visual plant response rating; details: Test C, 0 is no effect, 100 is complete control
Method in brief: as §1

[3] = system: ragweed (common ragweed, Ambrosia artemisiifolia); test: Test C preemergence, visual plant response rating; details: Test C, 0 is no effect, 100 is complete control
Method in brief: as §1

[4] = system: pigweed (Amaranthus retroflexus); test: Test C preemergence, visual plant response rating; details: Test C, 0 is no effect, 100 is complete control
Method in brief: as §1

[5] = system: kochia (Bassia scoparia); test: Test C preemergence, visual plant response rating; details: Test C, 0 is no effect, 100 is complete control
Method in brief: as §1

[6] = system: barnyardgrass (Echinochloa crus-galli); test: Test C preemergence, visual plant response rating; details: Test C, 0 is no effect, 100 is complete control
Method in brief: as §1

[7] = system: duck salad (Heteranthera limosa); test: Test D flooded paddy test, visual plant response rating; details: 250 g ai/ha, scale 0 to 100 (0 no effect, 100 complete control), 13 to 15 d
Method in brief: (§2)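 2-leaf plants, flooded 3 cm, cpd into paddy water; greenhouse 13–15 d; visual rating vs controls, 0 = no effect, 100 = complete control; dash = no result.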

[8] = system: rice (Oryza sativa); test: as above; details: 250 g ai/ha, scale 0 to 100 (0 no effect, 100 complete control), 13 to 15 d
Method in brief: as §2

[9] = system: sedge umbrella (small-flower umbrella sedge, Cyperus difformis); test: as above; details: 250 g ai/ha, scale 0 to 100 (0 no effect, 100 complete control), 13 to 15 d
Method in brief: as §2

[10] = system: barnyardgrass (Echinochloa crus-galli); test: as above; details: 250 g ai/ha, scale 0 to 100 (0 no effect, 100 complete control), 13 to 15 d
Method in brief: as §2

[11] = system: corn (Zea mays); test: Test C postemergence, visual plant response rating
Method in brief: as §1

[12] = system: Italian ryegrass (Lolium mutiflorum); test: Test C postemergence, visual plant response rating
Method in brief: as §1

[13] = system: foxtail, giant (giant foxtail, Setaria faberi); test: Test C postemergence, visual plant response rating
Method in brief: as §1

[14] = system: blackgrass (Alopecurus myosuroides); test: Test C postemergence, visual plant response rating
Method in brief: as §1

[15] = system: ragweed (common ragweed, Ambrosia artemisiifolia); test: Test C postemergence, visual plant response rating
Method in brief: as §1

[16] = system: pigweed (Amaranthus retroflexus); test: Test C postemergence, visual plant response rating
Method in brief: as §1

[17] = system: kochia (Bassia scoparia); test: Test C postemergence, visual plant response rating
Method in brief: as §1

[18] = system: galium (catchweed bedstraw, Galium aparine); test: Test C postemergence, visual plant response rating
Method in brief: as §1

[19] = system: barnyardgrass (Echinochloa crus-galli); test: Test C postemergence, visual plant response rating
Method in brief: as §1

[20] = system: wheat (Triticum aestivum); test: Test C postemergence, visual plant response rating
Method in brief: as §1

[21] = Test C, postemergence, 125 g ai/ha

| Compound | Ryegrass, Italian plant response rating (0 to 100 scale) ([1]; 31 g ai/ha) | Ryegrass, Italian plant response rating (0 to 100 scale) ([1]; 125 g ai/ha) | Foxtail, Giant plant response rating (0 to 100 scale) ([2]; 31 g ai/ha) | Foxtail, Giant plant response rating (0 to 100 scale) ([2]; 125 g ai/ha) | Ragweed plant response rating (0 to 100 scale) ([3]; 31 g ai/ha) | Ragweed plant response rating (0 to 100 scale) ([3]; 125 g ai/ha) | Pigweed plant response rating (0 to 100 scale) ([4]; 31 g ai/ha) | Pigweed plant response rating (0 to 100 scale) ([4]; 125 g ai/ha) | Kochia plant response rating (0 to 100 scale) ([5]; 31 g ai/ha) | Kochia plant response rating (0 to 100 scale) ([5]; 125 g ai/ha) | Barnyardgrass plant response rating (0 to 100 scale) ([6]; 31 g ai/ha) | Barnyardgrass plant response rating (0 to 100 scale) ([6]; 125 g ai/ha) | Plant response rating, Ducksalad (Flood) [7] | Plant response rating, Rice (Flood) [8] | Plant response rating, Sedge, Umbrella (Flood) [9] | Plant response rating, Barnyardgrass (Flood) [10] | Corn plant response rating (0 to 100 scale) ([11]; Postemergence, 31 g ai/ha) | Corn plant response rating (0 to 100 scale) [11, 21] | Ryegrass, Italian plant response rating (0 to 100 scale) ([12]; Postemergence, 31 g ai/ha) | Ryegrass, Italian plant response rating (0 to 100 scale) [12, 21] | further results |
| --- | --- | --- | --- | --- | --- | --- | --- | --- | --- | --- | --- | --- | --- | --- | --- | --- | --- | --- | --- | --- | --- |
| CCO/N=C(\c1c(O)c(Cl)nn(C)c1=O)c1ccc(F)c2ccccc12 [Compound 212] | 0 | 30 | 80 | 100 | 10 | 100 | 10 | 100 | 0 | 20 | 40 | 80 | 60 | 0 | 65 | 20 | 0 | 0 | 10 | 80 | Foxtail, Giant plant response rating (0 to 100 scale) ([13]; Postemergence, 31 g ai/ha): 50; Foxtail, Giant plant response rating (0 to 100 scale) [13, 21]: 80; Blackgrass plant response rating (0 to 100 scale) ([14]; Postemergence, 31 g ai/ha): 0; Blackgrass plant response rating (0 to 100 scale) [14, 21]: 0; Ragweed plant response rating (0 to 100 scale) ([15]; Postemergence, 31 g ai/ha): 100; Ragweed plant response rating (0 to 100 scale) [15, 21]: 90; Pigweed plant response rating (0 to 100 scale) ([16]; Postemergence, 31 g ai/ha): 50; Pigweed plant response rating (0 to 100 scale) [16, 21]: 90; Kochia plant response rating (0 to 100 scale) ([17]; Postemergence, 31 g ai/ha): 50; Kochia plant response rating (0 to 100 scale) [17, 21]: 50; Galium plant response rating (0 to 100 scale) ([18]; Postemergence, 31 g ai/ha): 90; Galium plant response rating (0 to 100 scale) [18, 21]: 100; Barnyardgrass plant response rating (0 to 100 scale) ([19]; Postemergence, 31 g ai/ha): 50; Barnyardgrass plant response rating (0 to 100 scale) [19, 21]: 70; Wheat plant response rating (0 to 100 scale) ([20]; Postemergence, 31 g ai/ha): 0; Wheat plant response rating (0 to 100 scale) [20, 21]: 0 |
| CON=C(c1cc(Cl)cc(Cl)c1Cl)c1c(O)c(C)nn(C)c1=O [Compound 213] | 70 | 100 | 60 | 80 | 70 | 100 | 100 | 100 | 20 | 80 | 70 | 90 | 70 | 40 | 90 | 70 | 20 | 40 | 90 | 100 | Foxtail, Giant plant response rating (0 to 100 scale) ([13]; Postemergence, 31 g ai/ha): 70; Foxtail, Giant plant response rating (0 to 100 scale) [13, 21]: 80; Blackgrass plant response rating (0 to 100 scale) ([14]; Postemergence, 31 g ai/ha): 30; Blackgrass plant response rating (0 to 100 scale) [14, 21]: 80; Ragweed plant response rating (0 to 100 scale) ([15]; Postemergence, 31 g ai/ha): 70; Ragweed plant response rating (0 to 100 scale) [15, 21]: 80; Pigweed plant response rating (0 to 100 scale) ([16]; Postemergence, 31 g ai/ha): 80; Pigweed plant response rating (0 to 100 scale) [16, 21]: 90; Kochia plant response rating (0 to 100 scale) ([17]; Postemergence, 31 g ai/ha): 60; Kochia plant response rating (0 to 100 scale) [17, 21]: 70; Galium plant response rating (0 to 100 scale) ([18]; Postemergence, 31 g ai/ha): 90; Galium plant response rating (0 to 100 scale) [18, 21]: 90; Barnyardgrass plant response rating (0 to 100 scale) ([19]; Postemergence, 31 g ai/ha): 80; Barnyardgrass plant response rating (0 to 100 scale) [19, 21]: 80; Wheat plant response rating (0 to 100 scale) ([20]; Postemergence, 31 g ai/ha): 40; Wheat plant response rating (0 to 100 scale) [20, 21]: 60 |
| CON=C(c1cc(Cl)cc(Cl)c1Cl)c1c(O)c(C)nn(C)c1=O [Compound 214] | 90 | 100 | 80 | 100 | 20 | 100 | 80 | 100 | 20 | 70 | 70 | 90 | 70 | 45 | 70 | 70 | 30 | 40 | 80 | 100 | Foxtail, Giant plant response rating (0 to 100 scale) ([13]; Postemergence, 31 g ai/ha): 80; Foxtail, Giant plant response rating (0 to 100 scale) [13, 21]: 80; Blackgrass plant response rating (0 to 100 scale) ([14]; Postemergence, 31 g ai/ha): 30; Blackgrass plant response rating (0 to 100 scale) [14, 21]: 80; Ragweed plant response rating (0 to 100 scale) ([15]; Postemergence, 31 g ai/ha): 80; Ragweed plant response rating (0 to 100 scale) [15, 21]: 90; Pigweed plant response rating (0 to 100 scale) ([16]; Postemergence, 31 g ai/ha): 80; Pigweed plant response rating (0 to 100 scale) [16, 21]: 90; Kochia plant response rating (0 to 100 scale) ([17]; Postemergence, 31 g ai/ha): 70; Kochia plant response rating (0 to 100 scale) [17, 21]: 80; Galium plant response rating (0 to 100 scale) ([18]; Postemergence, 31 g ai/ha): 90; Galium plant response rating (0 to 100 scale) [18, 21]: 90; Barnyardgrass plant response rating (0 to 100 scale) ([19]; Postemergence, 31 g ai/ha): 70; Barnyardgrass plant response rating (0 to 100 scale) [19, 21]: 80; Wheat plant response rating (0 to 100 scale) ([20]; Postemergence, 31 g ai/ha): 40; Wheat plant response rating (0 to 100 scale) [20, 21]: 70 |
| CO/N=C(/c1ccc(Cl)c(Cl)c1)c1c(O)c(C)nn(C)c1=O [Compound 216] | 0 | 10 | 0 | 0 | 0 | 0 | 0 | 0 | 0 | 0 | 50 | 0 | 0 | 0 | 0 | 0 | 0 | 0 | 0 | 0 | Foxtail, Giant plant response rating (0 to 100 scale) ([13]; Postemergence, 31 g ai/ha): 0; Foxtail, Giant plant response rating (0 to 100 scale) [13, 21]: 0; Blackgrass plant response rating (0 to 100 scale) ([14]; Postemergence, 31 g ai/ha): 0; Blackgrass plant response rating (0 to 100 scale) [14, 21]: 0; Ragweed plant response rating (0 to 100 scale) ([15]; Postemergence, 31 g ai/ha): 10; Ragweed plant response rating (0 to 100 scale) [15, 21]: 40; Pigweed plant response rating (0 to 100 scale) ([16]; Postemergence, 31 g ai/ha): 0; Pigweed plant response rating (0 to 100 scale) [16, 21]: 20; Kochia plant response rating (0 to 100 scale) ([17]; Postemergence, 31 g ai/ha): 20; Kochia plant response rating (0 to 100 scale) [17, 21]: 50; Galium plant response rating (0 to 100 scale) ([18]; Postemergence, 31 g ai/ha): 30; Galium plant response rating (0 to 100 scale) [18, 21]: 80; Barnyardgrass plant response rating (0 to 100 scale) ([19]; Postemergence, 31 g ai/ha): 0; Barnyardgrass plant response rating (0 to 100 scale) [19, 21]: 10; Wheat plant response rating (0 to 100 scale) ([20]; Postemergence, 31 g ai/ha): 0; Wheat plant response rating (0 to 100 scale) [20, 21]: 0 |

Source: patent publication US20210045385A1, “PYRIDAZINONE-SUBSTITUTED KETOXIMES AS HERBICIDES” (FMC Corporation, priority 2018, published 2021)
